Patent publication US10308617B2, “Triazole benzamide derivatives and the compositions and methods of treatment regarding the same” (An2H Discovery Limited, priority 2016, dated 2019)

Molecular target: T1, Parkin ligase (Homo sapiens, UniProt O60260)
T1 sequence (O60260 1-465): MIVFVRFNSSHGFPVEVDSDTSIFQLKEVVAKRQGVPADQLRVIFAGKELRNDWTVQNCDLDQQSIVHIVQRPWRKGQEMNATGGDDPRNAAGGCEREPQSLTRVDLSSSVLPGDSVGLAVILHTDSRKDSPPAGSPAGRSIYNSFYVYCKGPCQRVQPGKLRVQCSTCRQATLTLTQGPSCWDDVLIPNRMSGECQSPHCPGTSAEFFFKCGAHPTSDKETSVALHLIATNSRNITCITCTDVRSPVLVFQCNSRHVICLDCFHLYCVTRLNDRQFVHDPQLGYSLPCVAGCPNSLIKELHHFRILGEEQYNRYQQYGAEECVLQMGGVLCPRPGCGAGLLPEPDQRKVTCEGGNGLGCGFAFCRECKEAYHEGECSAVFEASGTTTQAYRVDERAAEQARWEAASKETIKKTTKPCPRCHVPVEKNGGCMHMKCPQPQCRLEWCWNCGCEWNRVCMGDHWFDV
Test: Activity-Based Probe Assay using an Ubiquitin vinyl sulfone probe (TR-FRET)
Type: biochemical
Settings: Parkin activation, HA-Ub-VS probe, heat activated Parkin; read-out: Probe Assay EC50 (μM) [Example 2]
Experimental: An Ubiquitin vinyl sulfone probe can be used that irreversibly binds to the active site cysteine of Parkin ligase. Covalent attachment of the probe to the Parkin can be monitored by TR-FRET. Candidate activator compounds can be identified by increasing the activity of Parkin ligase due to an increase in TR-FRET signal. Screening for activating compounds can be distinguished from the controls as follows: • 100% activation signal=Heat activated Parkin+100 nM control activator in DMSO. • 0% activation signal=Heat activated Parkin+DMSO only. • Parkin activators can be identified by an increase of the 0% activation signal TR-FRET signal.
• Assay Plate: White 384 well plate (Corning 3572) • Enzyme: Parkin-His tagged 203 μM (10.5 mg/ml) • Probe: Ubiquitin vinyl-sulfone (HA-Ub-VS Boston Biochem U-212) • DMSO: DMSO (Sigma cat # D4540-100ML) • Reaction Buffer: 50 mM HEPES (pH 8.5), 150 mM NaCl, 0.01% Tween 20, 0.1% BSA • Detection Buffer: 50 mM HEPES (pH 8.5), 150 mM NaCl, 0.01% Tween 20, 0.1% BSA, 800 mM KF • Detection Reagent A: 2.6 nM Anti-6HIS-Eu cryptate and 40 nM Anti-HA-XL665 in detection buffer • Eu cryptate: Anti-6HIS-Eu cryptate (CisBio 61HISKLA) • XL665: Anti-HA-XL665 (CisBio 610HAXLA) Enzyme Reaction (15 min pre incubation Parkin with activator only) • Parkin: 40 nM • HA-Ub-VS Probe: 70 nM • Activator/DMSO: 2× Activator/2% DMSO • Reaction time: 60 minutes • Temperature: 22° C. • Total volume: 10 μl reaction Detection Reaction • Take 10 μl of Enzyme Reaction above and add 10 μl detection Reagent A under the following conditions: • Reaction time: 60 minutes • Temperature: 22° C. • Total volume: 20 μl
Assay procedure (Using HP D-300 compound dispenser and Bravo for the operation): • 1) Heat activate Parkin in reaction buffer (500 μl/1.5 ml tube: Eppendorf Thermomixer 5 minutes, 400 rpm at 58° C. and put on ice until needed). • 2) Load assay plate wells with 4.8 μl 84.5 nM Parkin in reaction buffer by use of Bravo. • 3) Deliver 0.2 μl 200× activator candidates in DMSO by use of HP D-300 compound dispenser. Highest 200× concentration=[…] and then twofold dilutions. • 4) Spin 1000 rpm, 2 minutes, at room temp. • 5) Incubate plate for 15 minutes at room temp. • 6) Add 5 μl 140 nM HA-Ub-VS Probe in reaction buffer by use of Bravo. • 7) Spin 1000 rpm, 2 minutes, at room temp. • 8) Incubate plate for 60 minutes at room temp. • 9) Add 10 μl 2.6 nM Anti-6HIS-Eu cryptate and 40 nM Anti-HA-XL665 in detection buffer. • 10) Spin 1000 rpm, 2 minutes, at room temp. • 11) Incubate plate for 60 minutes at room temp. • 12) Read plates on Perkin Elmer Envision instrument with the following parameters: • LANCE dual laser protocol loaded into the Envision® software • Top Mirror: LANCE/DELFIA Duel/Bias (Bar code 446) • Emission Filter: APC 665 EM (Bar code 205) • 2nd Emission Filter: Europium 615 EM (Bar code 203) • Read 655 nm (channel 1) and 615 nm (channel 2) wavelengths on Envision®
Data Analysis: The Data can be read in CSV files. There are two tables in those CSV files, which are the values of 655 nm (channel 1) and 615 nm (channel 2) wavelengths respectively. The data is converted to an HTRF Ratio=(Channel 1/Channel 2)*10,000
The average of all the 0 uM controls (DMSO only)=BKGD (Background—0% activation). Subtract BKGD from each HTRF Ratio value=HTRF-BKGD. The average of all the […] 100 nM control activator in DMSO controls=Max (100% activation). The following equation is then used to calculate % Activation for each well/candidate as follows: % Activation=(HTRF-BKGD/Max)*100.
Graphpad Prisim was used with Transform X values: X=Log(X) and nonlinear regression (dose-response-stimulation): Log(agonist) vs Response—variable slope (four parameters) with constrains set to Bottom=0 and Top=100.
The Activity-Based Probe Assay was performed with various compounds in Tables 1-3.

Row | Structure (SMILES) | EC50
1 | O=C(Nc1nc(NC(=O)c2ccc(I)cc2)n(-c2ccccc2)n1)c1ccc(I)cc1 [D] | > 100 µM
2 | CN(C(=O)c1ccccc1)c1nc(NC(=O)c2ccccc2)n(-c2ccccc2)n1 [G] | > 100 µM
3 | O=C(Nc1nc(Nc2ncnc3ccccc23)nn1-c1ccccc1)c1ccccc1 [I] | > 100 µM
4 | CN(C(=O)c1ccccc1)c1nc(N(C)C(=O)c2ccccc2)n(-c2ccccc2)n1 [J] | > 100 µM
5 | Cc1ccccc1-n1nc(NC(=O)c2ccccc2)nc1NC(=O)c1ccccc1 [M] | > 100 µM
6 | O=C(Nc1nc(-c2ccccn2)nn1-c1ccccc1)c1ccccc1 [T] | > 100 µM
7 | O=C(Nc1nc(Nc2nccc3ccccc23)n(-c2ccccc2)n1)c1ccccc1 [U] | > 100 µM
8 | CN(C(=O)c1ccccc1)c1nc(NC(=O)c2ccccc2)nn1-c1ccccc1 [V] | > 100 µM
9 | CCN(CC)c1nc(Nc2nc(NC(=O)c3ccccc3)nn2-c2ccccc2)c2ccccc2n1 [W] | > 100 µM
10 | CCN(CC)c1nc(Nc2nc(NC(=O)c3ccccc3)nn2-c2ccccc2)nc2ccccc12 [X] | > 100 µM
11 | O=C(Nc1nc(Nc2ncnc3ccccc23)n(-c2ccccc2)n1)c1ccco1 [Z] | 9.1 µM

Other lines, results leading:

Row | EC50 | Structure (SMILES)
12 | 22 µM | c1ccc(-n2nc(-c3ccccn3)nc2Nc2ncnc3ccccc23)cc1 [Compound U2]
13 | > 100 µM | O=C(Nc1nc(NC(=O)c2cccc([N+](=O)[O-])c2)n(-c2ccccc2)n1)c1ccccc1 [Compound V1]
14 | > 100 µM | Cc1ccccc1C(=O)Nc1nc(C2CCOCC2)nn1-c1ccccc1 [Compound V2]
15 | 10.4 µM | O=C(Nc1nc(NC(=O)c2ccco2)n(-c2ccccc2)n1)c1ccccc1 [Compound W1]
16 | > 100 µM | Cc1ccccc1C(=O)Nc1nc(NC(=O)c2ccccc2C)n(C(C)C)n1 [Compound W2]
17 | 62 µM | O=C(Nc1nc(NC(=O)c2ccccc2)n(-c2ccc(-c3ccccc3)cc2)n1)c1ccccc1 [Compound X1]
18 | > 100 µM | Cc1ccccc1C(=O)Nc1nc(NC(=O)c2ccccc2C)n(-c2ccccn2)n1 [Compound X2]
19 | 2 µM | O=C(Nc1nc(-c2ccccn2)nn1-c1ccccc1)c1ccccc1 [Compound Y1, N-(1-phenyl-3-(pyridin-2-yl)-1H-1,2,4-triazol-5-yl)benzamide]
20 | 1 µM | O=C(Nc1nc(NC(=O)c2ccccc2)n(-c2ccc(OC(F)(F)F)cc2)n1)c1ccccc1 [Compound Z1]
